How the values were obtained:
cGMP = assay: Parotid saliva cGMP, 96 plate spectrophotometric assay; assay type: in vivo, human; details: for saliva cGMP over initial values: improved patients; for change of saliva cGMP: unimproved patients
Description: (§1) Parotid saliva was collected from each patient by application of a Lashley cup over Stensen's duct with lingual stimulation by placement of concentrated lemon juice. Saliva was collected in plastic tubes and stored at −20° C. until assayed. cAMP and cGMP were measured in saliva by a sensitive 96 plate spectrophotometric assay (R&D Systems, Minneapolis, MN).
All patients were placed in a fixed design open label clinical trial with treatment with oral theophylline. Treatment consisted of fixed treatment periods of two-eight months with sequential doses of the drug at 200 mg, 400 mg and 600 mg. At termination of each of these intervals, patients returned to study site for reevaluation. At the end of each interval subjective responses to treatment were measured with a modification of the 0-100 scale previously used (vs). Subjective responses to treatment were graded on a sliding scale from −100-0-+100 with patients recording improvement (+0-+100), no improvement (0) or worsening (0—-100) of their overall smell function. If overall smell function improved ≥5% they were considered to improve clinically (1). If smell function improved <5% they were considered not to improve (1). At the end of each interval subjective measurements of smell function, measurements of DT, RT, ME and H and measurements of parotid saliva for levels of cAMP and cGMP were obtained. In addition, blood plasma was obtained by venipuncture, placed in ice into zinc free tubes which contained 100 mg zinc free heparin, centrifuged at 3000 rpm for 10-20 min, the plasma transferred to plastic PCR tubes and stored at −20° C. until assayed. Theophylline was assayed by a fluorescence polarization assay (Abbott, Chicago, IL), as previously described.
Data for the cyclic nucleotides from these 31 patients was not analyzed until the entire study of the 312 patients in Example 1 was assembled and analyzed in its entirety. After completion of these analyses, all data for parotid saliva cAMP and cGMP from all patients in whom salivary cAMP and cGMP were obtained were assembled. Levels of salivary cyclic nucleotides varied widely. Initially, without external criteria, there was no way to understand these disparate data. […] In a similar manner, measurements of each patient's plasma theophylline level at each dosage of theophylline (at 200 mg, 400 mg, 600 mg of theophylline) were catagorized. The two patient groups were also analyzed post hoc with respect to type of smell loss and etiology of smell loss.

cAMP = assay: Parotid saliva cAMP, 96 plate spectrophotometric assay; assay type: in vivo, human
Description: as §1
All patients were placed in a fixed design open label clinical trial with treatment with oral theophylline. Treatment consisted of fixed treatment periods of two-eight months with sequential doses of the drug at 200 mg, 400 mg and 600 mg. At termination of each of these intervals, patients returned to study site for reevaluation. At the end of each interval subjective responses to treatment were measured with a modification of the 0-100 scale previously used (vs). […] Theophylline was assayed by a fluorescence polarization assay (Abbott, Chicago, IL), as previously described.
Data for the cyclic nucleotides from these 31 patients was not analyzed until the entire study of the 312 patients in Example 1 was assembled and analyzed in its entirety. […] The two patient groups were also analyzed post hoc with respect to type of smell loss and etiology of smell loss.

## Cn1c(=O)c2[nH]cnc2n(C)c1=O [theophylline]
cGMP; oral 400 mg
  saliva cGMP over initial values: 275%
  change of saliva cGMP: little change
cGMP; oral 600 mg
  saliva cGMP over initial values: 338%
  change of saliva cGMP: no increase
cAMP; oral 400 mg, patients with improved smell function (12), mean ± SEM
  parotid saliva cAMP: 1.22 ± 0.33 pmol/mL
cAMP; oral 200, 400, 600 mg, unimproved patients
  change of saliva cAMP: essentially no change

Reference: patent US12329753B2, “Phosphodiesterase inhibitor treatment” (Cyrano Therapeutics, Inc., priority 2008, dated 2025)
